Measured values: patent US7998985B2, “1,5-diphenyl-3-pyridinylamino-1,5-dihydropyrrolidin-2-one as CB1 receptor modulator” (Eli Lilly and Company, priority 2006, dated 2011)

What was measured:
rat CB1 receptor = target: T1, rat CB1 receptor (Rattus norvegicus, UniProt P20272); experiment: Antibody-capture SPA GTP-γ-35S binding, antagonist/inverse agonist mode, rat CB1 (CHO membranes); format: biochemical; conditions: Rat CB1 (CHO cells) membranes; vs saturating methanandamide; mean ± SEM; read-out: Inverse Agonist Potency (Kb)
T1 construct: purchased Applied Cell Sciences, Gaithersburg, Md; PerkinElmer Life Sciences, Boston, Mass; host or cells: CHO cells (recombinant expression), membranes
Method: (§1) Antibody-Capture SPA GTP-γ-^35S Binding
(§2) In cell membranes expressing human or rat CB1 or CB2 receptor, test (3R,5R)-3-[1-methyl-1-(6-trifluoromethyl-pyridin-3-yl)-ethylamino]-1-(4-trifluoromethyl-phenyl)-5-(3-trifluoromethoxy-phenyl)-pyrrolidin-2-one 4-methylbenzenesulfonate (referred to as “Example 2”) for its antagonist/inverse agonist functional GTP-binding. In a 96 well format using a modified antibody capture technique (DeLapp et al., 1999), measure GTP-γ^35S binding. Briefly incubate for 30 minutes at room temperature the GTP-binding assay buffer (20 mM Hepes, 100 mM NaCl, 5 mM MgCl2, pH 7.4), the CHO or Sf9 cell membranes expressing CB1 or CB2, (Applied Cell Sciences, Gaithersburg, Md.; PerkinElmer Life Sciences, Boston, Mass.; prepare membranes as previously described (DeLapp et al., 1999)), Example 2 and the 500 pM GTP-γ-^35S (PerkinElmer Life Sciences, Boston, Mass.). Perform antagonist dose responses in the presence of a saturating dose of a full agonist (methanandamide). […]
(§3) To analyze data, subtract background from all wells. […] Determine Kb values using a modification of the Cheng-Prusoff relationship: Kb=IC50/(1+[agonist]/EC50) where IC50 is determined from a four parameter fit of displacement curves, [agonist]=EC50 of full agonist, and EC50 is determined from a four parameter fit of a full agonist concentration response curve (Cheng and Prusoff 1973). […]

hCB1 [1] = target: T2, hCB1 (Homo sapiens, UniProt P21554); experiment: Antibody-capture SPA GTP-γ-35S binding, antagonist/inverse agonist mode, human CB1 (CHO membranes); format: biochemical; conditions: Human CB1 (CHO cells) membranes; vs saturating methanandamide; mean ± SEM; read-out: Inverse Agonist Potency (Kb)
Method: as §1, §2, §3

male Sprague-Dawley rats = experiment: Microdialysis of monoamines and metabolites in prefrontal cortex; format: in vivo; conditions: rat prefrontal cortex microdialysate; doses as low as 1 mg/kg, p.o.
Method: Methods: Implant male Sprague-Dawley rats (260-300 g, Taconic Farms, Germantown, N.Y.) with a cannula (BAS, West Lafayette, Ind.) in the prefrontal cortex (PFC) 5-7 days before the experiment. Insert a concentric type probe with a 4 mm membrane tip extending below the cannula through the cannula about 16 hours before the experiment began and collect the microdialysate from prefrontal cortex and analyze for monoamines and their metabolites. Calculate all microdialysis data as percent change from dialysate basal concentrations with 100% defined as the average of the final three drug pre-injection values and each group having 5-6 rats. Analyze data with ANOVA and follow by a post-hoc Bonferroni test.

[2] = test system: female Sprague-Dawley rats; experiment: Atypical antipsychotic (olanzapine) weight gain model; format: in vivo, rat; conditions: 0.3 and 1 mg/kg Example 2 plus olanzapine, days 15-28
From the text: Methods: Maintain adult lean, female Sprague-Dawley rats ad libitum on normal rodent chow Purina LabDiet 5001 (12.3% fat) and water. […] Follow food intake, monitor body weight and change in fat mass over a two week treatment.

human CB2 receptor [3] = target: T3, human CB2 receptor (Homo sapiens, UniProt P34972); experiment: Antibody-capture SPA GTP-γ-35S binding, antagonist/inverse agonist mode, human CB2 (Sf9 membranes); format: biochemical; conditions: Human CB2 (Sf9 cells) membranes, Table 1
T3 construct: purchased Applied Cell Sciences, Gaithersburg, Md; PerkinElmer Life Sciences, Boston, Mass; host or cells: Sf9 insect cells (recombinant expression), membranes

hCB1 [4] = target: T2, hCB1; experiment: GTP-γ-35S binding, agonist mode, human CB1 (Sf9 membranes); format: biochemical; design: purchased Applied Cell Sciences, Gaithersburg, Md; PerkinElmer Life Sciences, Boston, Mass; host or cells: Sf9 insect cells (recombinant expression), membranes
[5] = test system: alcohol-preferring (P) rats; experiment: Progressive ratio responding maintained by ethanol; format: in vivo, rat; conditions: female P rats, progressive ratio schedule
From the text: Assess the ability of Example 2 to reduce the motivational drive controlling ethanol intake.
Methods: Study female alcohol-preferring (P) rats under a progressive ratio schedule in which responding produces 15% ethanol (v/v). Under the progressive ratio schedule, the response requirement for ethanol delivery increases from 1 to 2 and then increments by 2 after 3 ethanol presentations.

[6] = test system: diet-induced obese (DIO) male Long-Evans rats; experiment: Feeding model in diet-induced obese (DIO) rats, 14 days; format: in vivo, rat
From the text: Methods: Administer Example 2 to diet-induced obese (DIO) male Long-Evans rats. Establish DIO by ad lib feeding from weanling of a diet consisting of 40% fat, 39% carbohydrate and 21% protein caloric content for at least 12 weeks. Define compound potency by T17 (the dose required to produce a difference from the vehicle group of 17 grams). This represents a minimally biologically relevant reduction of 3-4% of body weight compared to vehicle treatment after 2 weeks.

human CB2 receptor [7] = target: T3, human CB2 receptor; experiment: GTP-γ-35S binding, agonist mode, human CB2 (Sf9 membranes); format: biochemical
[8] = normalised to full agonist methanandamide

T2 sequence (P21554 whole entry): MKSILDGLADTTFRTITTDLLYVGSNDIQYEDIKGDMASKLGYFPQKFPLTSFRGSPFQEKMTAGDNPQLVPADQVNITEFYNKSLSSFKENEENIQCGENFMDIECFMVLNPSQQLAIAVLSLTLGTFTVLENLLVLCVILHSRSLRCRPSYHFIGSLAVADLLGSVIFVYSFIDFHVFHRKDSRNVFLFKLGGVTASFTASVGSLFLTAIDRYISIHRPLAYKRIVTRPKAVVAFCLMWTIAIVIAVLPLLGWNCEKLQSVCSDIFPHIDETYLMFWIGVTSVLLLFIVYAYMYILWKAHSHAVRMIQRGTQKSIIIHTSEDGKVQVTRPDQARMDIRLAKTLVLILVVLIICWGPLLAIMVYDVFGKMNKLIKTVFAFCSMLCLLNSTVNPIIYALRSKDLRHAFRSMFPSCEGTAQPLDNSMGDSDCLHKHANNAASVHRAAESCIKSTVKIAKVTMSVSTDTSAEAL
T3 sequence (P34972 whole entry): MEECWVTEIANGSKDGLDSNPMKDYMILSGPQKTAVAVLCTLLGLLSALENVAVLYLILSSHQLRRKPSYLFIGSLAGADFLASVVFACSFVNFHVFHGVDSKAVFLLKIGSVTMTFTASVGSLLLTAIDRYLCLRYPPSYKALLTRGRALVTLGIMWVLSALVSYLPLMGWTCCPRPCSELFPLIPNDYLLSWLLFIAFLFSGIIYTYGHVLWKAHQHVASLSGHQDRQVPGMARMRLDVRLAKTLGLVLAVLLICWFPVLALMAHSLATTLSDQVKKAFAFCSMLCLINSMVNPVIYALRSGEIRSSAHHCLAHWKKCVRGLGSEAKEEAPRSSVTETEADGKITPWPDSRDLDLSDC
T1 sequence (P20272 whole entry): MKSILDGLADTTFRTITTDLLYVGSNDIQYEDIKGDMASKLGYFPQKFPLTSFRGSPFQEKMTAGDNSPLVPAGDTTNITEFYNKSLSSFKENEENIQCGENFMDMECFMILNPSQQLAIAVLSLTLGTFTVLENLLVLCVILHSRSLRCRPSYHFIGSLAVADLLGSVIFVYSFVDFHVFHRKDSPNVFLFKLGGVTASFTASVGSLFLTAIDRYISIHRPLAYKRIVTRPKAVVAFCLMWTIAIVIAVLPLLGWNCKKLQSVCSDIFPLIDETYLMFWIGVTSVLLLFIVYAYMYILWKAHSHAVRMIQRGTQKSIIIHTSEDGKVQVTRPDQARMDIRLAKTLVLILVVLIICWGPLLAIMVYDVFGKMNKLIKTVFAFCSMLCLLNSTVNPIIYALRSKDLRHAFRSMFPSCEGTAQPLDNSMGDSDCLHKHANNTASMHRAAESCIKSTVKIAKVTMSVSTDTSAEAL

In the case of CC(C)(N[C@@H]1C[C@H](c2cccc(OC(F)(F)F)c2)N(c2ccc(C(F)(F)F)cc2)C1=O)c1ccc(C(F)(F)F)nc1.Cc1ccc(S(=O)(=O)O)cc1 [Example 2, (3R,5R)-3-[1-methyl-1-(6-trifluoromethyl-pyridin-3-yl)-ethylamino]-1-(4-trifluoromethyl-phenyl)-5-(3-trifluoromethoxy-phenyl)-pyrrolidin-2-one, 4-methylbenzenesulfonate (1:1)], the Kb (rat CB1 receptor) is reported as 1.27 ± 0.2 nM, the Kb (hCB1 [1]) is reported as 0.71 ± 0.26 nM and the “cortical monoamine and metabolite levels” value (male Sprague-Dawley rats) is reported as “Increase rat cortical monoamine and metabolite levels”. The “fat free mass under olanzapine” value [2] was “no changes in fat free mass”, the “fat mass gain under olanzapine” value [2] was “significant reduction in fat mass gain” and the “Inverse Agonist Potency (Kb, nM)” value (human CB2 receptor [3]) was “No measurable activity”. For the same molecule, the “Agonist Efficacy %” value (hCB1 [4]; [8]) was −47.9 ± 4.7%, the EC50 (hCB1 [4]; read-out: Agonist Potency EC50) was 0.58 ± 0.05 nM and the “ethanol-seeking behavior and ethanol consumed” value ([5]; 15% ethanol, dose-dependently) was “Reduce ethanol-seeking behavior and the consumption of ethanol consumed”. The reduction of breakpoint ([5]; F(4,20)=4.52, p=0.009) was “in a dose-dependent manner”, the “fat free mass (QNMR)” value [6] was “minimal changes in fat free mass at one of the highest doses” and the cumulative body weight ([6]; 14-day oral treatment) was “reduction of cumulative body weight”. For the same molecule, the “T17 (dose producing a 17 gram body weight difference from vehicle)” value ([6]; 14-day oral treatment, estimated) was 0.13 mg/kg, the “efficacy dose (T17) for change in body mass from control” value ([6]; daily oral, 14 days, as restated) was 0.13 mg/kg/day and the “fat mass (QNMR)” value ([6]; doses 0.1-10 mg/kg) was “significant reductions in fat mass”. The cumulative food intake ([6]; once daily orally, 14 days) was “Decrease cumulative food intake”, the “Agonist Potency EC50 (nM)” value (human CB2 receptor [7]) was “No measurable activity” and the “Agonist Efficacy %” value (human CB2 receptor [7]; [8]) was 0%.
